{
  "source": "patent US6229029A",
  "about": "“11β-aryl substituted 14,17-ethanoestratriens, method for the production of these compounds and their use in the production of medicaments” (Schering Aktiengesellschaft, priority 1997, dated 2001)",
  "key": {"[1]": {"system": "bone (distal femur / proximal tibia) of ovariectomized rats", "experiment": "Bone studies in ovariectomized rats: bone density by pQCT", "assay_type": "in vivo, rat", "settings": "for % of Action of E2 (bone density femur) / Bone Density Femur: Table 4, distal femur; for % of Action of E2 (bone density femur) / Bone Density Femur / Bone Density / % of Action of E2 (bone density): 28 days; for Bone Density / % of Action of E2 (bone density): Table 5, proximal tibia"}, "bone / uterus of rats": {"system": "bone / uterus of rats", "experiment": "Dissociation of bone action/uterus action (FIG. 7)", "assay_type": "in vivo, rat", "settings": "bone action vs uterus epithelial height, relative to 17β-estradiol", "source_text": "There, for compounds A, B and V, their bone-protecting actions are compared to the action of estrogen on the uterus (parameter: uterus epithelial height) as a function of dosage, in each case relative to the action of 17β-estradiol."}, "[2]": {"system": "trabecular bone (proximal tibia) of ovariectomized rats", "experiment": "Bone studies in ovariectomized rats: trabecular bone surface area (TB/TV), histological, proximal tibia", "assay_type": "in vivo, rat", "settings": "Table 4, proximal tibia, 28 days", "protocol": "(§1) 3-month-old female rats are ovariectomized and treated once daily with the test compound immediately after the operation for 28 days. The administration is done subcutaneously in castor oil/benzyl benzoate or arachis oil/ethanol. The animals are sacrificed on the day after the last administration, and femurs, tibiae and uteri are removed. The uteri are weighed, fixed and worked up for histological studies. The determination of the bone density is carried out ex vivo on prepared long bones with use of pQCT (Quantitative Computer Tomography). The measurements are performed at a distance of 5-7 mm from the ball of the joint on the distal femur or the proximal tibia.\nAs an alternative, the action on the bone is determined by measuring the trabecular bone surface area of the secondary spongiosa in histological preparations of the distal femur or the proximal tibia. The result is expressed as the proportion, in percent, of the trabecular bone surface area in the measured total bone surface area ([…]). The bone density that is measured with use of QCT and the trabecular bone surface area that is determined in the histological section correlate well to one another. A comparison of the two measurement variables is therefore permissible.\nAbout 50% of the bone density of the animals is lost by the ovariectomy. […] In Table 4 and FIG. 2, the results of this test for doses of 0.1-100 μg/animal/day are presented. The bone density was measured on the distal femur; for comparison, the trabecular bone surface area in the proximal tibia was measured. The data that are contained in Table 4 mean specifically:\nTB/TV trabecular bone surface area/total bone surface area; histologically determined\nFor compound B according to the invention, their bone-protecting action was also determined (Table 6). For this purpose, the parameter of TB/TV was determined, which, however, with respect to the informational value for the bone-protecting activity correlates well to the parameter of BMD-qCT that is determined for compounds A and V. This can be ascertained from Table 4; both parameters were determined for compound A."}, "estrogen receptors": {"target": "T1, estrogen receptors (Homo sapiens, UniProt P03372)", "T1 construct": "expressed in transfected cells; host or cells: HeLa cells", "experiment": "Transactivation assay in HeLa cells (partial estrogenic action, rPR-TK)", "assay_type": "cell-based", "settings": "rPR-TK reporter, read-out: Agonism HELA (rPR-TK)", "protocol": "The partial estrogenic action was also determined by transactivation assays. HeLa cells were […] with estrogen receptors and a reporter gene, which consists of the estrogen-response element of the progesterone receptor and the CAT-gene. The test was performed as described: Savouret et al., EMBO J. 10, 1875-1883 (1991)."}, "uterus of infant rats": {"system": "uterus of infant rats", "experiment": "Uterus growth test on infant rats (estrogenic action)", "assay_type": "in vivo, rat", "settings": "for Epithelial Height % E2 / Uterus Weight % E2: 3 days, infant rats", "source_text": "The influence of the compounds according to the invention on the uterus was examined in the uterus growth test (estrogenic action) and in the anti-uterus growth test (antiestrogenic action), both performed on infant rats.\nIn infant animals, both uterus and vagina show one of the estrogenic activity-dependent weight increases in their treatment with an estrogenically active substance. In the uterus, under estrogenic action, moreover, it results in a proliferation and height increase of the luminal epithelium.\nImmature, normal rats (body weight 40-50 g) receive the substance s.c. over 3 days (d1-d3). On day 4 (d4), the animals are sacrificed with CO2. The uteri are prepared outside and weighed. A piece of the uterus, preferably a uterine horn, is set in formaldehyde for the histological evaluation and embedded in paraffin. The stimulation of the organ weights (relative to mg/100 g of body weight) and the epithelial height are indicated in percentage stimulation in comparison to the reference compound 17β-estradiol. (Substitution dose E2 0.3 μg/animal)."}, "[3]": {"system": "uterus of ovariectomized rats", "experiment": "Uterus weight in ovariectomized rats of the bone studies", "assay_type": "in vivo, rat", "protocol": "as §1"}, "human estrogen receptor": {"target": "T2, human estrogen receptor (Homo sapiens, UniProt P03372)", "T2 construct": "expressed in transfected cells; host or cells: HeLa cells", "T2 sequence (P03372 1-595)": "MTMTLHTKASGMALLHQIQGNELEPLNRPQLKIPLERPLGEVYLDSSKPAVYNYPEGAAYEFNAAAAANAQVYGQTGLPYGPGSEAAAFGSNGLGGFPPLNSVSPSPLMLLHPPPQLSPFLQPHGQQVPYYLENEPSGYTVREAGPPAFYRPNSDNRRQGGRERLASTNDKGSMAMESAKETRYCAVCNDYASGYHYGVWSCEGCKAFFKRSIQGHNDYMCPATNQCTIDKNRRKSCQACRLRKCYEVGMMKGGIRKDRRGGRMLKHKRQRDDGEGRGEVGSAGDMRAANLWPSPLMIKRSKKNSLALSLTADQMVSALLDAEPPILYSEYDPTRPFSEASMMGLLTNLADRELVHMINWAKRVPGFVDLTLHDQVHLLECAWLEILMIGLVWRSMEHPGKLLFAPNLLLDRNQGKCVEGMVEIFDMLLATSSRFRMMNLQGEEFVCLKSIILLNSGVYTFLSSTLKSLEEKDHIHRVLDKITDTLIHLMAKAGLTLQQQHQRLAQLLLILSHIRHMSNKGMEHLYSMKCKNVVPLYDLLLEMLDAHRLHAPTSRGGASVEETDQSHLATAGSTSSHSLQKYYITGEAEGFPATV", "experiment": "Transactivation assay in HeLa cells (antiestrogenic action, vit-TK-CAT reporter)", "assay_type": "cell-based", "settings": "in the presence of 0.1 nM estradiol, read-out: Antagonism IC50, HELA"}},
  "data": [
    {"smiles": "C[C@]12C[C@H](c3ccc(OCCCCCS(=O)(=O)Cc4ccccn4)cc3)[C@@H]3c4ccc(O)cc4CC[C@H]3[C@]13CC[C@@]2(O)CC3", "note": "[Compound A]", "values": [
      {"measurement": "% of Action of E2 (bone density femur)", "setting": "[1]; 0.1 μg/animal/day s.c.", "value": 14, "unit": "%"},
      {"measurement": "Bone Density Femur", "setting": "[1]; 0.1 μg/animal/day s.c.", "value": 296.4, "unit": "mg Ca/ccm"},
      {"measurement": "% of Action of E2 (bone density femur)", "setting": "[1]; 1 μg/animal/day s.c.", "value": 31, "unit": "%"},
      {"measurement": "Bone Density Femur", "setting": "[1]; 1 μg/animal/day s.c.", "value": 309.6, "unit": "mg Ca/ccm"},
      {"measurement": "% of Action of E2 (bone density femur)", "setting": "[1]; 10 μg/animal/day s.c.", "value": 60, "unit": "%"},
      {"measurement": "Bone Density Femur", "setting": "[1]; 10 μg/animal/day s.c.", "value": 331.3, "unit": "mg Ca/ccm"},
      {"measurement": "% of Action of E2 (bone density femur)", "setting": "[1]; 100 μg/animal/day s.c.", "value": 50, "unit": "%"},
      {"measurement": "Bone Density Femur", "setting": "[1]; 100 μg/animal/day s.c.", "value": 324.1, "unit": "mg Ca/ccm"},
      {"measurement": "Bone Density", "setting": "[1]; 100 μg/animal/day s.c.", "value": 361.8, "unit": "mg Ca/ccm"},
      {"measurement": "% of Action of E2 (bone density)", "setting": "[1]; 500 μg/animal/day s.c.", "value": 49, "unit": "%"},
      {"measurement": "Bone Density", "setting": "[1]; 500 μg/animal/day s.c.", "value": 336.3, "unit": "mg Ca/ccm"},
      {"measurement": "% of Action of E2 (bone density)", "setting": "[1]; 2000 μg/animal/day s.c.", "value": 65, "unit": "%"},
      {"measurement": "Bone Density", "setting": "[1]; 2000 μg/animal/day s.c.", "value": 348.8, "unit": "mg Ca/ccm"},
      {"measurement": "effect of dose increase on bone action (in words)", "setting": "[1]; above 100 μg/animal/day, proximal tibia", "value": "can no longer be increased by increasing the dose"},
      {"measurement": "protective action in comparison to 17β-estradiol", "setting": "[1]; dose range between 10 and 100 μg/animal/day s.c.", "value": "50-60%"},
      {"measurement": "degradation of bone density after ovariectomy (in words)", "setting": "[1]; ovariectomized rats, 0.1-100 μg/animal/day", "value": "prevented or inhibited"},
      {"measurement": "dose with which an action of about 80% of 17β-estradiol on trabecular bone is achieved", "setting": "[1]; proximal tibia, s.c.", "value": 100, "unit": "μg/animal/day"},
      {"measurement": "potency relative to comparison compound V, bone-protecting action", "setting": "[1]; proximal tibia, vs compound V", "value": 3, "unit": "factor"},
      {"measurement": "dissociation of bone-protecting action from estrogen action on the uterus (in words)", "setting": "bone / uterus of rats", "value": "most dissociated"},
      {"measurement": "TB/TV (Tibia)", "setting": "[2]; 0.1 μg/animal/day s.c.", "value": 17.2, "unit": "%"},
      {"measurement": "% of Action of E2 (TB/TV tibia)", "setting": "[2]; 1 μg/animal/day s.c.", "value": 17, "unit": "%"},
      {"measurement": "TB/TV (Tibia)", "setting": "[2]; 1 μg/animal/day s.c.", "value": 18.9, "unit": "%"},
      {"measurement": "% of Action of E2 (TB/TV tibia)", "setting": "[2]; 10 μg/animal/day s.c.", "value": 35, "unit": "%"},
      {"measurement": "TB/TV (Tibia)", "setting": "[2]; 10 μg/animal/day s.c.", "value": 22.5, "unit": "%"},
      {"measurement": "% of Action of E2 (TB/TV tibia)", "setting": "[2]; 100 μg/animal/day s.c.", "value": 62, "unit": "%"},
      {"measurement": "TB/TV (Tibia)", "setting": "[2]; 100 μg/animal/day s.c.", "value": 27.0, "unit": "%"},
      {"measurement": "% of Action of E2 (TB/TV tibia)", "setting": "[2]; cell empty for 17β-estradiol, 0.1 μg/animal/day s.c.", "value": 4.1, "unit": "%"},
      {"measurement": "Emax", "setting": "estrogen receptors", "value": 16, "unit": "%"},
      {"measurement": "Epithelial Height % E2", "setting": "uterus of infant rats; 0.01 mg/kg s.c.", "value": 6, "unit": "% E2"},
      {"measurement": "Uterus Weight % E2", "setting": "uterus of infant rats; 0.01 mg/kg s.c.", "value": 2, "unit": "% E2"},
      {"measurement": "Epithelial Height % E2", "setting": "uterus of infant rats; 0.1 mg/kg s.c.", "value": -16, "unit": "% E2"},
      {"measurement": "Uterus Weight % E2", "setting": "uterus of infant rats; 0.1 mg/kg s.c.", "value": 0, "unit": "% E2"},
      {"measurement": "Epithelial Height % E2", "setting": "uterus of infant rats; 1 mg/kg s.c.", "value": -8, "unit": "% E2"},
      {"measurement": "Uterus Weight % E2", "setting": "uterus of infant rats; 1 mg/kg s.c.", "value": -7, "unit": "% E2"},
      {"measurement": "Epithelial Height % E2", "setting": "uterus of infant rats; 10 mg/kg s.c.", "value": -22, "unit": "% E2"},
      {"measurement": "Uterus Weight % E2", "setting": "uterus of infant rats; 10 mg/kg s.c.", "value": -15, "unit": "% E2"},
      {"measurement": "estrogenic action in the uterus (in words)", "setting": "uterus of infant rats; s.c., uterus growth test", "value": "without any estrogenic action in the uterus"},
      {"measurement": "stimulation of uterus weight (in words)", "setting": "[3]; FIG. 3, test of Table 4, 0.1-100 μg/animal/day", "value": "stimulates the uterus weight, but at most does so marginally"},
      {"measurement": "stimulation of uterus weight (in words)", "setting": "[3]; FIG. 5, test of Table 5, all tested dosages 100-2000 μg/animal/day", "value": "stimulates the uterus weight only marginally in all tested dosages"},
      {"measurement": "IC50", "setting": "human estrogen receptor", "value": 0.4, "unit": "nM"}
    ]}
  ]
}
